Several values for one entry are separate records, joined by “and”; a condition that tells them apart may be missing. Equal values may be shown once.
Experiments:
[1] = tested on: human platelet rich plasma; experiment: Collagen-induced platelet aggregation in vitro in human platelet rich plasma (method of Born and O'Brien), change in optical density; format: cell-based; settings: collagen 500 mcg./ml., read-out: Percent Inhibition (of maximum aggregation response to collagen in a control sample)
Method: Various concentrations of the compound were added in vitro to human platelet rich plasma. Collagen (final concentration 500 mcg./ml.) was added to induce platelet aggregation. Inhibition of platelet aggregation was determined by measuring the change in the optical density of the platelet rich plasma.

[2] = tested on: platelet rich plasma; experiment: Collagen-induced aggregation of platelet rich plasma from orally treated male rats; format: in vivo; settings: Rattus norvegicus, po, 2 h, 100 mg./kg. orally, bled after one to two hours, collagen 500 mcg./ml., read-out: Percent Inhibition of aggregation
Method: In a second test the in vivo activity of the compound was established. In this test the compound was administered orally to male rats at a concentration of 100 mg./kg. After one to two hours, the rats were bled and platelet rich plasma obtained. Collagen, at a concentration of 500 mcg./ml. was added to induce platelet aggregation and comparisons were made between control and treated samples. The percent inhibition of aggregation produced by the compound of this invention appears in Table II.

[3] = tested on: respiratory depression associated with platelet aggregation and thrombosis induced by arachidonic acid; experiment: Respiratory depression induced by arachidonic acid in mice; format: in vivo
Method: Two hours later a challenge dose of arachidonic acid was given to the mice intravenously at a concentration of 50 mg./kg. The period of respiratory distress for each animal was recorded in seconds by observation. The results appear in Table III in comparison with controls who received only starch vehicle.

[4] = tested on: pain; settings: warm-blooded animals; U.S. Pat. No. 3,784,704; cited from earlier work

`O=C(O)Cc1ccc(-c2ccccc2)cc1` [4-Biphenylacetic acid] showed an inhibition at 25 µg/mL ([1]; concentration 25 mcg./ml.) of 38.6%, an inhibition at 250 µg/mL ([1]; concentration 250 mcg./ml.) of 40.7% and an inhibition at 100 mg/kg [2] of 12%. The “period of respiratory distress, Average, Treated” value ([3]; 100 mg./kg. orally, arachidonic acid 50 mg./kg. i.v. two hours later, average of 21 treated animals (controls 7.58 minutes)) was 1.93 min, the “period of respiratory distress, Time in Seconds, Treated (individual animals)” value ([3]; 100 mg./kg. orally, arachidonic acid 50 mg./kg. i.v. two hours later, individual animals 1-21, one line each in order) was 420 s and 200 s and 30 s and 150 s and 170 s and 80 s and 195 s and 125 s and 35 s and 120 s and 25 s and 20 s and 60 s and 50 s and 90 s and 75 s and 70 s and 189 s and 100 s and the “inhibition of respiratory depression induced by arachidonic acid (in words)” value ([3]; in vivo) was “inhibits the respiratory depression”. For the same molecule, the “amelioration of pain (in words)” value [4] was “long lasting amelioration of pain”.

Source: patent US3966978A (American Cyanamid Company, priority 1975, dated 1976)
